Columns and labels:
[1] = tested on: multiple myeloma cell line NCI-H929; test: H929 Cell Viability Assay; type: cell-based, human; conditions: Homo sapiens, NCI-H929, 48 h, NCI-H929 cells, Celltiter-Glo
How it was run: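 Luminescent ATP detection (CellTiter-Glo) after 48 hours of compound exposure measures viability. Cells were plated in RPMI 1640 containing 10% fetal bovine serum and kept at 37° C under 5% CO2.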

[2] = Liver Microsome Stability Assay (monkey); conditions: monkey liver microsomes, with NADPH, 1.0 uM compound
Description: (§1) Stability of a compound was assessed in the presence of liver microsomes from various sources—mouse, rat, monkey and human liver microsomes. 1.0 uM compound, 0.4% DMSO in 0.1 M Potassium Phosphate with 1.0 mg/mL liver microsomes, were incubated at 37° C. with or without 1 mM NADPH. The samples were quenched at 0, and 30 minutes.

[3] = tested on: multiple myeloma cell line U266B1; test: U266 Cell Viability Assay; type: cell-based, human; conditions: Homo sapiens, U-266, 48 h, U266B1 cells, Celltiter-Glo
How it was run: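 Steps: culture in RPMI 1640 plus 10% FBS and 2 mM glutamine; plate and add compound dilutions; incubate 48 hours at 37° C., 5% CO2; add CellTiter-Glo and quantify luciferase signal.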

[4] = tested on: IL-2-FL/Gaussia Luciferase; test: Dox Induced IL2-FL-Gluc Assay; type: cell-based; conditions: for IC50: 24 hr Dox induction, 293FRT/TO cells, read-out: 24 hr Dox Inducible IL2FLGluc 293FRT/TO: Mean IC50; for 24 hr Dox Inducible IL2FLGluc 293FRT/TO: IL2/PD1: ratio of IL2FLGluc IC50 to PD1ssGluc IC50
How it was run: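 Cells are plated one day ahead, then receive compound dilutions in DMSO/media with doxycycline and incubate at 37° C, 5% CO2. They are Flp-In 293 T-REx cells expressing a full-length IL-2 (amino acids 1-153)–Gaussia luciferase fusion under T-REx control.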

[5] = tested on: HER3-ss+4aa/Gaussia Luciferase; test: Dox-Induced Her3-ss-Gluc Assay; type: cell-based; conditions: 24 hr Dox induction; 293FRT/TO cells; read-out: 24 hr Dox Inducible Her3(ss + 4)Gluc 293FRT/TO: Mean IC50
How it was run: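 Cells were seeded a day ahead, then given compound diluted in DMSO/media with doxycycline to induce expression of the HER3 signal sequence (+4 aa)–Gaussia luciferase fusion. Incubation was at 37° C., 5% CO2, in a stable Flp-In 293 T-REx line.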

[6] = tested on: PD1-ss+10aa/Gaussia Luciferase; test: Dox-Induced PD1-ss-Gluc Assay; type: cell-based; conditions: 24 hr Dox induction; 293FRT/TO cells; read-out: 24 hr Dox Inducible PD1ssGluc 293FRT/TO: Mean IC50
How it was run: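 Stable Flp-In 293 T-REx cells carried a doxycycline-inducible construct of Gaussia luciferase fused to the PD1 signal sequence plus 10 amino acids. Cells were plated the day before, then treated with compound dilutions in DMSO/media containing doxycycline at 37 °C, 5% CO2.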

[7] = Liver Microsome Stability Assay (mouse); conditions: mouse liver microsomes, with NADPH, 1.0 uM compound
Description: as §1

[8] = Liver Microsome Stability Assay (human); conditions: human liver microsomes, with NADPH, 1.0 uM compound
Description: as §1

[9] = tested on: TNFα-FL/Gaussia Luciferase; test: Dox Induced TNFα-FL-Gluc Assay; type: cell-based; conditions: for IC50: 24 hr Dox induction, 293FRT/TO cells, read-out: 24 hr Dox Inducible TNFaFLGluc 293FRT/TO: Mean IC50; for 24 hr Dox Inducible TNFaFLGluc 293FRT/TO: TNF/PD1: ratio of TNFaFLGluc IC50 to PD1ssGluc IC50
How it was run: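 Stereoisomer mixtures were tested where stereochemistry is not drawn. Induction used doxycycline added together with compound dilutions in DMSO/media to Flp-In 293 T-REx cells carrying a T-REx-regulated TNFα (aa 1-233)-Gaussia luciferase construct, then incubated at 37 °C, 5% CO2.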

[10] = Liver Microsome Stability Assay (rat); conditions: rat liver microsomes, with NADPH, 1.0 uM compound
Description: as §1

Row | SMILES | EC50 [1] [µM] | Liver Microsome Stability (Multiple Species): Monkey - % Remaining after 30 min w/NADPH [2] [%] | EC50 [3] [µM] | IC50 [4] [µM] | 24 hr Dox Inducible IL2FLGluc 293FRT/TO: IL2/PD1 [4] | IC50 [5] [µM] | IC50 [6] [µM] | Liver Microsome Stability (Multiple Species): Mouse - % Remaining after 30 min w/NADPH [7] [%] | Liver Microsome Stability (Multiple Species): Human - % Remaining after 30 min w/NADPH [8] [%] | IC50 [9] [µM] | 24 hr Dox Inducible TNFaFLGluc 293FRT/TO: TNF/PD1 [9] | Liver Microsome Stability (Multiple Species): Rat - % Remaining after 30 min w/NADPH [10] [%]
1 | CC(C)c1cc(/C=C/c2csc(NC(=O)c3cccn3Cc3ccnc(F)c3)n2)no1 [Compound B90, (E)-1-((2-fluoropyridin-4-yl)methyl)-N-(4-(2-(5-isopropylisoxazol-3-yl)vinyl)thiazol-2-yl)-1H-pyrrole-2-carboxamide] | 22.8 | 0.54 | > 25 | 1.17 | 7 | 0.69 | 0.167 | 10.8 | 0.87 | > 25 | >150 | 5.78
2 | CC(=O)N1CCC(n2cnc(/C=C/c3csc(NC(=O)c4cccn4Cc4ccnc(F)c4)n3)c2)CC1 [Compound B91, (E)-N-(4-(2-(1-(1-acetylpiperidin-4-yl)-1H-imidazol-4-yl)vinyl)thiazol-2-yl)-1-((2-fluoropyridin-4-yl)methyl)-1H-pyrrole-2-carboxamide] | > 25 | 0.24 | > 25 | > 25 | >4.1 | > 25 | 6.05 | 33.9 | 0.22 | > 25 | >4.13 | 44.2
3 | O=C(Nc1nc(/C=C/c2cn(C3CCOCC3)cn2)cs1)c1cccn1Cc1ccnc(F)c1 [Compound B92, (E)-1-((2-fluoropyridin-4-yl)methyl)-N-(4-(2-(1-(tetrahydro-2H-pyran-4-yl)-1H-imidazol-4-yl)vinyl)thiazol-2-yl)-1H-pyrrole-2-carboxamide] | 22.8 | 0.04 | > 25 | 12.1 | 170 | > 25 | 0.0724 | 6.38 | 0.19 | > 25 | >345 | 2.02
4 | CC(C)n1cc(/C=C/c2csc(NC(=O)c3cccn3Cc3ccnc(F)c3)n2)nc1C#N [Compound B93, (E)-N-(4-(2-(2-cyano-1-isopropyl-1H-imidazol-4-yl)vinyl)thiazol-2-yl)-1-((2-fluoropyridin-4-yl)methyl)-1H-pyrrole-2-carboxamide] | 20.9 | 0.03 | > 25 | 11 | 16 | 2.73 | 0.686 | 12.7 | 0.85 | > 25 | >36.4 | 11.5
5 | CC(C)c1cc(/C=C/c2csc(NC(=O)c3cccn3Cc3ccnc(F)c3)n2)n(C)n1 [Compound B94, (E)-1-((2-fluoropyridin-4-yl)methyl)-N-(4-(2-(3-isopropyl-1-methyl-1H-pyrazol-5-yl)vinyl)thiazol-2-yl)-1H-pyrrole-2-carboxamide] | > 25 | 0.06 | > 25 | > 25 | >24 | 0.877 | 1.02 | 20 | 0.55 | > 25 | >24.5 | 31.1
6 | CC(C)n1ccnc1/C=C/c1csc(NC(=O)c2cccn2Cc2ccnc(F)c2)n1 [Compound B95, (E)-1-((2-fluoropyridin-4-yl)methyl)-N-(4-(2-(1-isopropyl-1H-imidazol-2-yl)vinyl)thiazol-2-yl)-1H-pyrrole-2-carboxamide] | > 25 | 0.03 | > 25 | > 25 | >32 | > 25 | 0.782 | 0.08 | 0.04 | > 25 | >32.0 | 0.54
7 | CC(C)c1cc(/C=C/c2csc(NC(=O)c3cccn3Cc3ccnc(F)c3)n2)nn1C [Compound B96, (E)-1-((2-fluoropyridin-4-yl)methyl)-N-(4-(2-(5-isopropyl-1-methyl-1H-pyrazol-3-yl)vinyl)thiazol-2-yl)-1H-pyrrole-2-carboxamide] | 20.7 | 0.19 | > 25 | 7.59 | 25 | 3.3 | 0.304 | 8.33 | 0.79 | > 25 | >82.3 | 13.6
8 | CC1CCn2cnc(/C=C/c3csc(NC(=O)c4cccn4Cc4ccnc(F)c4)n3)c2C1 (stereo not drawn) [Compound B97, (E)-1-((2-fluoropyridin-4-yl)methyl)-N-(4-(2-(7-methyl-5,6,7,8-tetrahydroimidazo[1,5-a]pyridin-1-yl)vinyl)thiazol-2-yl)-1H-pyrrole-2-carboxamide] | > 25 | 0.13 | > 25 | 7.51 | 31 | 4.79 | 0.244 | 13.8 | 0.3 | > 25 | >103 | 10.8

— US20230286973A1, “PROTEIN SECRETION INHIBITORS” (KEZAR LIFE SCIENCES, priority 2020, published 2023)
